US20170119769A1, “SCAFFOLDS FOR INHIBITORS OF MENIN-MLL INTERACTIONS” (THE TRUSTEES OF THE UNIVERSITY OF PENNSYLVANIA, priority 2014, published 2017)
Entries after “also recorded” stand apart in the source; their conditions may differ.

Experiments:
GLP1 receptor = GLP1 receptor expression in human islets (real time quantitative PCR); format: cell-based; conditions: 50 nM, 200 nM or 500 nM for 2 days, vs DMSO
Protocol: FIG. 16. Menin inhibition increases expression of the GLP1 receptor Human islets were cultured in a humidified incubator with 5% CO2 at 37° C. After 24 hours, the islets were treated with vehicle control (DMSO) or varying concentrations of MI-2-2 (50 nM, 200 nM or 500 nM) for 2 days. The islets were harvested and. RNA was isolated and was reverse transcribed to cDNA. cDNA was quantitated by real time quantitative PCR and normalized using β-actin as endogenous control.
Menin inhibition also increases expression of GLP1 receptor, which is the receptor mediating the pro-islet incretin's ability to reduce blood glucose (FIG. 16). Human islets were procured from the Islet Transplantation Center, University of Pennsylvania and cultured in a humidified incubator with 5% CO2 at 37° C. After 24 hours, the islets were treated with vehicle control (DMSO) or varying concentrations of MI-2-2 (50 nM, 200 nM or 500 nM) for 2 days. […] RNA was isolated using the RNeasy Mini Kit (Qiagen, Germantown, Md.) and was reverse transcribed to cDNA using the SuperScript® III Reverse Transcriptase (Life Technologies, Grand Island, N.Y.). cDNA was quantitated by real time quantitative PCR using QuantiTect SYBR® Green (Qiagen, Germantown, Md.) on a 7500 Fast Real time PCR system (AppliedBiosystems, Life Technologies, Grand Island, N.Y.) and normalized using β-actin as endogenous control.

murine islets = test: Proliferation (Ki67) in isolated murine islets; format: cell-based, C57BL/6J mice
Excerpt: FIG. 14. Menin inhibitor (MI-2-2) increases proliferation in murine islets, as evidenced by increased number of cells positive for the proliferation marker Ki67. […] Isolated murine islets were pre-cultured for one day before treatment with drug or vehicle.
The ability of MI-2-2 to stimulate cell growth was further tested in murine islets isolated from C57BL/6J mice (Jackson Laboratories, Bar Harbor, Me.).

[1] = test system: menin-null (vector) MEF cells; test: Cell growth of menin-null (vector) MEFs; format: cell-based, mouse; conditions: increasing concentrations from day 1; counted after six days of treatment
Protocol: (§1) FIG. 15. Menin inhibition antagonizes menin mediated suppression of cell proliferation. […] Vector and menin-expressing MEFs (inset) were seeded at 0.25×10^6 cells/10 cm dish on day 0, treated with either DMSO or increasing concentrations of MI-2-2 from day 1 as indicated, and counted after six days of treatment.
(§2) Vector and menin-expressing MEFs (FIG. 15, inset) were seeded at 0.25×10^6 cells/10 cm dish on day 0, treated with either DMSO or increasing concentrations of MI-2-2 from day 1 as indicated, and counted after six days of treatment. Thus, inhibition of menin antagonizes menin mediated suppression of cell proliferation.

[2] = test system: menin-expressing MEF cells; test: Cell growth of menin-expressing MEFs; format: cell-based, mouse; conditions: increasing concentrations from day 1; counted after six days of treatment
Protocol: as §1, §2

**Q.** Which results are given for `CC1(C)CN=C(N2CCN(c3ncnc4sc(CC(F)(F)F)cc34)CC2)S1` [MI-2-2]?
**A.** expression of GLP1 receptor relative to β-actin expression (GLP1 receptor): about 2 fold; Ki67 staining in murine islets (murine islets; 500 nM for two days, compared with vehicle control): increased Ki67 staining; Ki67 positive cells per unit area in murine islets (murine islets; treatment for 2 days, concentration dependence): increased the number of proliferating cells in a concentration dependent manner; also recorded: dose dependent increase; cell growth of menin-null (vector) MEFs [1]: did not do so in vector MEFs; also recorded: not menin-null (vector) cells; cell growth of menin-expressing MEFs [2]: increased cell growth in menin MEFs in a concentration dependent manner; also recorded: increases proliferation of menin-expressing MEF cells
